PMC8198714, “New Coumarin Derivatives as Cholinergic and Cannabinoid System Modulators” (Molecules, 2021)
Read-outs that look alike come from different tables or passages of the source.

Tests used:
[1] = target: T1, FAAH in rat brain membranes (Rattus norvegicus, UniProt P97612); details: read-out: IC50 FAAH with 20 min Pre-incubation; cited from earlier work
T1 sequence (P97612 1-579): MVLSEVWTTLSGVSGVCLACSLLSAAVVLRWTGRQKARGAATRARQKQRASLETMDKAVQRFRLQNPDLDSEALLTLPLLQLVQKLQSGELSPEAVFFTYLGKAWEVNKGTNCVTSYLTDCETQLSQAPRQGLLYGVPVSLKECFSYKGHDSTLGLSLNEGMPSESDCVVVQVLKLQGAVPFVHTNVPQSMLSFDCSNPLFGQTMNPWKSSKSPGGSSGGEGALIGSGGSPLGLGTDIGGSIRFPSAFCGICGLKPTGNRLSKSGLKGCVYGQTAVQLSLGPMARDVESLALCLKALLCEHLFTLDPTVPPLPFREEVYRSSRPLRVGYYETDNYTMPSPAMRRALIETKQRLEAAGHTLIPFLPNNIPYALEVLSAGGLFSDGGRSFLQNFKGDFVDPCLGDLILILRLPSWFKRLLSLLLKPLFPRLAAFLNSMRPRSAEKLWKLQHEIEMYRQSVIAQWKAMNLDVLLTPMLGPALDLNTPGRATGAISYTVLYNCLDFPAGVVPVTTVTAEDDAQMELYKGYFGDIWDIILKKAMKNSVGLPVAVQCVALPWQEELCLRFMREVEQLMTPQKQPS

[2] = target: T1, FAAH in rat brain membranes; test: FAAH assay, [14C]-AEA hydrolysis in rat brain membranes
Aβ42 self-aggregation = target: T2, Aβ42 self-aggregation (Homo sapiens, UniProt P05067); test: Inhibition of Aβ42 self-aggregation, thioflavin T fluorescence; format: biochemical; details: read-out: % Inhibition Aβ42 self-aggregation (±SEM)
T2 construct: pretreated Aβ42 samples (Bachem AG, Bubendorf, Switzerland); purchased Bachem AG, Bubendorf, Switzerland
Description: Finally, in a multitarget perspective, the compounds were tested to evaluate their Aβ anti-aggregation properties.
As reported in a previously published protocol, 1,1,1,3,3,3-hexafluoro, 2-propanol pretreated Aβ42 samples (Bachem AG, Bubendorf, Switzerland) were solubilized with a CH3CN/0.3 mM Na2CO3/250 mM NaOH (48.4:48.4:3.2) mixture. Experiments were performed by incubating the peptide in 10 mM phosphate buffer (pH = 8.0) containing 10 mM NaCl, at 30 °C for 24 h (final Aβ concentration = 50 μM) with and without inhibitor (50 μM, Aβ/inhibitor = 1/1). Blanks containing the tested inhibitors were also prepared and tested. To quantify amyloid fibrils formation, the thioflavin T (ThT) fluorescence method was used. After incubation, samples were diluted to a final volume of 2.0 mL with 50 mM glycine-NaOH buffer (pH 8.5) containing 1.5 μM ThT. A 300 s-time scan of fluorescence intensity was carried out (λexc = 446 nm; λem = 490 nm, FP-6200 fluorometer, Jasco Europe), and values at plateau were averaged after subtracting the background fluorescence of 1.5 μM ThT solution. The fluorescence intensities were compared and the percent inhibition due to the presence of the inhibitor.

[3] = target: T3, BuChE from human serum (hBuChE) (Homo sapiens, UniProt P06276); test: Inhibition of human BuChE, Ellman's method; format: biochemical; details: for IC50: BuChE from human serum
T3 construct: commercial stock solution of BuChE from human serum (Sigma); purchased Sigma; host or cells: human serum
Description: (§1) The capacity of 2–7 to inhibit human ChE activity was assessed using the Ellman’s method. Initial rate assays were performed at 37 °C with a V-530 double beam spectrophotometer (Jasco Corporation, Cremella (LC), Italy city, state/prov abbrev if USA/Canada, country). […] AChE stock solution was prepared by dissolving human recombinant AChE lyophilized powder (Sigma-Aldrich, Merck group, Milan, Italy) in 0.1 M phosphate buffer at pH 8.0 containing 0.1% Triton X-100. Stock solution of BuChE was prepared by diluting commercial stock solution of BuChE from human serum (Sigma) in an aqueous solution of gelatin (0.2%) in order to have a final activity comprised between 0.11–0.15 ΔAbs/min. Stock solutions of inhibitors (1–2 mM) were prepared in methanol and diluted in methanol. […] Incubation times were: 60 min for 2 and 90 min for 3 and 4 on hAChE assay, and 45 min for 2 and 60 min for 3 and 4 on hBuChE assay, as assessed on the preliminary determination of the carbamoylation rate. Blank solutions containing all components except the enzyme were prepared in order to account for the non-enzymatic hydrolysis of the substrate. The reaction rates obtained in the absence and presence of inhibitor were compared and the percent inhibition due to the presence of inhibitor was calculated. […] Two independent experiments were performed for the determination of each IC50 value or for the calculation of the % of inhibition where the IC50 value could not be determined because of low inhibitory activity.

[4] = target: T4, human recombinant AChE (hAChE) (Homo sapiens, UniProt P22303); test: Inhibition of human AChE, Ellman's method; format: biochemical; details: for IC50: human recombinant AChE; for inhibition at 40 µM: [I] = 40 µM, read-out: hAChE % Inhibition (±SEM)
T4 construct: purchased Sigma-Aldrich, Merck group, Milan, Italy
Description: as §1

[5] = target: T5, human recombinant CB1 receptor (Homo sapiens, UniProt P21554); test: Competition binding assay with [3H]-CP-55,940 at CB1; details: for Ki: [3H]-CP55940 displacement, HEK-293 membranes, read-out: Ki on CB1 (m ± sd); for % Displacement at max tested on CB1 (m ± sd): max tested concentration 10 µM, [3H]-CP55940
T5 construct: purchased Perkin Elmer, Milan, Italy; host or cells: HEK-293
Description: (§2) Competition binding assay for CB1 and CB2 receptors was performed as previously reported. […] All compounds were tested following the procedure described by the manufacturer (Perkin Elmer, Milan, Italy).

[6] = target: T6, human recombinant CB2 receptor (Homo sapiens, UniProt P34972); test: Competition binding assay with [3H]-CP-55,940 at CB2; details: for Ki: [3H]-CP55940 displacement, HEK-293 membranes, read-out: Ki on CB2 (m ± sd); for % Displacement at max tested on CB2 (m ± sd): max tested concentration 10 µM, [3H]-CP55940
T6 construct: purchased Perkin Elmer, Milan, Italy; host or cells: HEK-293
Description: as §2

hAChE = target: T7, hAChE (Homo sapiens, UniProt P22303); test: Stopped time assay of hAChE carbamoylation; format: biochemical; details: determined at IC50 value
T7 construct: purchased Sigma-Aldrich, Merck group, Milan, Italy
Description: Given these premises, we initially investigated the time-dependent ChEs inhibition by 2–4 by evaluating the time required to achieve a plateau in the inhibition plot.
A stopped time assay was performed in order to define the time required for enzyme carbamoylation. In detail, residual enzyme activity upon selected incubation times was assessed by following the same protocol described in section “Determination of the inhibitory potency towards human AChE and BuChE”. […] The mixture was incubated at 37 °C for given times (from 5 to 90 min) before the addition of the substrate (AChT or BChT, respectively) and the determination of residual enzyme activity by Ellman’s method. A parallel control, with no inhibitor, allowed to adjust activities measured at various time.

[7] = IC50 FAAH (m ± sd), rat brain membranes, AEA hydrolysis, without pre-incubation
[8] = IC50 FAAH with 20 min Pre-incubation, rat brain membranes, 20 min pre-incubation at 37 °C
[9] = incubation time 60 min, read-out: IC50 hBuChE (±SEM)
[10] = incubation 20 min, read-out: hBuChE IC50 (±SEM)

T4 sequence (P22303 32-614): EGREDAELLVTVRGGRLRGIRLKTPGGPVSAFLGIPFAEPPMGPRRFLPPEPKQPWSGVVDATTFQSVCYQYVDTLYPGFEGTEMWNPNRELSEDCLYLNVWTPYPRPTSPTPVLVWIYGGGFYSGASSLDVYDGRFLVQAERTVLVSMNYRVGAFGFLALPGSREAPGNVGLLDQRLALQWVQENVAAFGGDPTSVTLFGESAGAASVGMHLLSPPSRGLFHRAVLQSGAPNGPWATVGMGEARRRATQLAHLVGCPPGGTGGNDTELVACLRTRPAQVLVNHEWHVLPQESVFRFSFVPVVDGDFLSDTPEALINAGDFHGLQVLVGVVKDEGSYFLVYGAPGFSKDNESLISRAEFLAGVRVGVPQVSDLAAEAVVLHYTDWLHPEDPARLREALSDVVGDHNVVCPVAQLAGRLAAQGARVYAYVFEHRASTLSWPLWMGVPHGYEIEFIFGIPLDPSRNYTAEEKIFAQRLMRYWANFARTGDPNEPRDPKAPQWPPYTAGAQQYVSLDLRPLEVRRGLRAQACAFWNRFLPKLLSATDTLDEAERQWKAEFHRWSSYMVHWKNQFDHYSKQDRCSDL
T2 sequence (P05067 672-713 limits assumed): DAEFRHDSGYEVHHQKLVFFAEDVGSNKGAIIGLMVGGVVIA
T6 sequence (P34972 whole entry): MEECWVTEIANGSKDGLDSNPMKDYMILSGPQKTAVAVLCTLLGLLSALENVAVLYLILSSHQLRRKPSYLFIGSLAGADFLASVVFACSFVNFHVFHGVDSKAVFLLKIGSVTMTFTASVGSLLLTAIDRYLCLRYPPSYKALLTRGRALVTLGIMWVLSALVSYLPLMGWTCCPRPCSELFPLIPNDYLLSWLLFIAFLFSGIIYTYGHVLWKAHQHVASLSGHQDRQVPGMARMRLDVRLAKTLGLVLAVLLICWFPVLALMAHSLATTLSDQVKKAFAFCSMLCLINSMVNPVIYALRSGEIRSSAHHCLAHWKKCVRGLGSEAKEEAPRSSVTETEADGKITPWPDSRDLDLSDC
T5 sequence (P21554 whole entry): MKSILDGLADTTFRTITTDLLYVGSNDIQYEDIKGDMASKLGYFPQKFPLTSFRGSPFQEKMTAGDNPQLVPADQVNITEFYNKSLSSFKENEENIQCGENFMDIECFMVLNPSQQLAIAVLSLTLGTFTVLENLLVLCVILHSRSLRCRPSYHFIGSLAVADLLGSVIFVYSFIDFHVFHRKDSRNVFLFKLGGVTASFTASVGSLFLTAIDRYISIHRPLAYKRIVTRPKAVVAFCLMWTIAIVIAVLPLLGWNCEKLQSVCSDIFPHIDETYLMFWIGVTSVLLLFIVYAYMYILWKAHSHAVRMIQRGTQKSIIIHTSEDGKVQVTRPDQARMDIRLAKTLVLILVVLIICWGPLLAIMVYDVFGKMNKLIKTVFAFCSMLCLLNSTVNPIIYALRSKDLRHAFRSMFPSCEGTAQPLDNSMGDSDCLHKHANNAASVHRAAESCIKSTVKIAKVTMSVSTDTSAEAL
T3 sequence (P06276 29-602): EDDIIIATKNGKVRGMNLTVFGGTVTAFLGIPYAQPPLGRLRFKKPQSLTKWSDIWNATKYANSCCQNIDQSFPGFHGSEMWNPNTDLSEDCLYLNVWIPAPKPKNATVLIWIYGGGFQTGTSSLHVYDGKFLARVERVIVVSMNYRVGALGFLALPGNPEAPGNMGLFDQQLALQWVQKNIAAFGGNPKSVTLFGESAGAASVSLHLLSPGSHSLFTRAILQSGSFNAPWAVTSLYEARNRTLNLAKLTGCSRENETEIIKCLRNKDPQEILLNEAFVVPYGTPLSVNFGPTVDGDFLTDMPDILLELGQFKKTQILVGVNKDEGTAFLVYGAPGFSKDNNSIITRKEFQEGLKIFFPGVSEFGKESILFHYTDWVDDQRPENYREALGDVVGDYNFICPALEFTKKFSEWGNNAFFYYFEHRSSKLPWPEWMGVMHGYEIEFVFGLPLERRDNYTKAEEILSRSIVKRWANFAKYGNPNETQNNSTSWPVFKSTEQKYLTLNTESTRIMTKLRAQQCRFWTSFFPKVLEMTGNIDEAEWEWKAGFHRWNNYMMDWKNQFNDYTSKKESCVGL
T7 sequence (P22303 32-614): as the sequence (P22303 32-614) above

SMILES	IC50 [2, 7]	IC50 [2, 8]	inhibition at 50 µM (Aβ42 self-aggregation)	inhibition at 40 µM ([4]; incubation 20 min)	Ki [5]	% Displacement at max tested on CB1 (m ± sd) [5]	IC50 [2]	IC50 [3, 10]	Ki [6]	% Displacement at max tested on CB2 (m ± sd) [6]	other results
CCCCCCCNC(=O)Oc1cccc(CN(C)CCCOc2ccc3ccc(=O)oc3c2)c1 [Compound 1]											IC50 [1]: 0.029 ± 0.001 µM
CN(CCCOc1ccc2ccc(=O)oc2c1)Cc1cccc(OC(=O)Nc2ccc3ccccc3c2)c1 [Compound 4, 3-((Methyl(3-((2-oxo-2H-chromen-7-yl)oxy)propyl)amino)methyl)phenyl naphthalen-2-ylcarbamate]	1.58 ± 0.26 µM	0.63 ± 0.08 µM	13.9 ± 3.8%								IC50 [3, 9]: 0.002 ± 0.0002 µM; difference in IC50 values hAChE vs hBuChE (selectivity) ([3]; hBuChE over hAChE): 100 fold
CN(CCCOc1ccc2ccc(=O)oc2c1)Cc1cccc(OC(=O)NC2CCCCC2)c1 [Compound 3, 3-((Methyl(3-((2-oxo-2H-chromen-7-yl)oxy)propyl)amino)methyl)phenyl cyclohexylcarbamate]	2.55 ± 0.33 µM	1.33 ± 0.28 µM	18.9 ± 2.1%								IC50 ([4]; incubation time 90 min, read-out: IC50 hAChE (±SEM)): 0.104 ± 0.021 µM; IC50 [3, 9]: 0.0349 ± 0.0042 µM
CN(CCCOc1ccc2ccc(=O)oc2c1)Cc1cccc(OCC(=O)NC2CCCC2)c1 [Compound 6, N-Cyclopentyl-2-(3-((methyl(3-((2-oxo-2H-chromen-7yl)oxy)propyl)amino)methyl)phenoxy)-acetamide]			20.3 ± 1.9%	41.7 ± 0.5%	> 10 µM	10 (35.75 ± 0.65) %	> 1000 µM	11.6 ± 0.8 µM	> 10 µM	10 (48.33 ± 1.73) %	IC50 ([4]; incubation 20 min, read-out: IC50 hAChE): 59.4 µM
CN(CCCOc1ccc2ccc(=O)oc2c1)Cc1cccc(OCC(=O)NC2CCCCC2)c1 [Compound 7, N-Cyclohexyl-2-(3-((methyl(3-((2-oxo-2H-chromen-7-yl)oxy)propyl)amino)methyl)phenoxy)-acetamide]			13.5 ± 5%	34 ± 3.2%	> 10 µM	10 (39.62 ± 10.48) %	> 1000 µM	12.8 ± 2.1 µM	> 10 µM	10 (14.3 ±3.83) %	
CN(CCCOc1ccc2ccc(=O)oc2c1)Cc1cccc(OC(=O)NC2CCCC2)c1 [Compound 2, 3-((Methyl(3-((2-oxo-2H-chromen-7-yl)oxy)propyl)amino)methyl)phenyl cyclopentylcarbamate]	6.09 ± 1.55 µM	2.53 ± 0.55 µM	22.9 ± 1.3%								pseudo-first order kobs of hAChE carbamoylation (hAChE): 0.038 min⁻¹; IC50 ([4]; incubation time 60 min, read-out: IC50 hAChE (±SEM)): 0.521 ± 0.014 µM; IC50 ([3]; incubation time 45 min, read-out: IC50 hBuChE (±SEM)): 0.00842 ± 0.00013 µM
CCCCCCCNC(=O)COc1cccc(CN(C)CCCOc2ccc3ccc(=O)oc3c2)c1 [Compound 5, N-Heptyl-2-(3-((methyl(3-((2-oxo-2H-chromen-7-yl)oxy)propyl)amino)methyl)phenoxy)acetamide]				13.6 ± 5.1%	> 10 µM	10 (35.57 ± 0.43) %	> 1000 µM	182 ± 28 µM	> 10 µM	10 (41.41 ± 0.87) %	
